Data reported in patent publication US20240148821A1, “PHARMACEUTICAL USE OF CYCLIC PEPTIDE COMPOUND” (CHUGAI SEIYAKU KABUSHIKI KAISHA, priority 2021, published 2024).
Numbered stars: 1 amine (or outer) side, 2 acyl side, 3 side chain; on linkers, the order of the positions; unused ones are H or OH. Bridge positions count the residues as written; N and C are the ends. Square brackets hold non-standard residues; d marks the D form. Peptide text beside a SMILES is read from it. * marks the point of attachment. hPhe(3,5-F2-4-CF3) = N[C@@H](CCc1cc(F)c(C(F)(F)F)c(F)c1)C(=O)O; hPhe(3-Cl-4-CF3) = N[C@@H](CCc1ccc(C(F)(F)F)c(Cl)c1)C(=O)O; hPhe(3-F,4-CF3) = N[C@@H](CCc1ccc(C(F)(F)F)c(F)c1)C(=O)O; NMePhe(4-CF3) = CN[C@@H](Cc1ccc(C(F)(F)F)cc1)C(=O)O; NMePhe(4-Cl) = CN[C@@H](Cc1ccc(Cl)cc1)C(=O)O; NMePhe(4-Me) = CN[C@@H](Cc1ccc(C)cc1)C(=O)O; NMePhe(2-Cl) = CN[C@@H](Cc1ccccc1Cl)C(=O)O; NMedβ3hAla = C[C@H](CC(=O)[*:2])N(C)[*:1]; NMeGly(cPent) = CN[C@H](C(=O)O)C1CCCC1; NMeCha = CN[C@@H](CC1CCCCC1)C(=O)O; NMehLeu = CN[C@@H](CCC(C)C)C(=O)O; Ala(cPr) = N[C@@H](CC1CC1)C(=O)O; Hyp = O=C(O)[C@@H]1C[C@@H](O)CN1; NMeAhp(2) = CCCCC[C@H](NC)C(=O)O; NMeI = CC[C@H](C)[C@H](NC)C(=O)O; NMeD = CN[C@@H](CC(=O)O)C(=O)O; NMeL = CN[C@@H](CC(C)C)C(=O)O; NMeV = CN[C@H](C(=O)O)C(C)C; Trifluoroethyl = FC(F)(F)C*; NMeS = CN[C@@H](CO)C(=O)O; Morpholide = C1CN(*)CCO1; NMeA = CN[C@@H](C)C(=O)O; NMeAib = CNC(C)(C)C(=O)O; Piperidide = C1CCN(*)CC1; dNMeA = CN[C@H](C)C(=O)O; Ac5c = NC1(C(=O)O)CCCC1; Aze = O=C(O)[C@@H]1CCN1; Sar = CNCC(=O)O; Propyl = CCC*

Key:
[1] = target: protein-protein interaction between Kras and SOS1 (biotin-tagged human Kras loaded with GDP, His-tagged human SOS1) (Homo sapiens (Human), UniProt P01116, G12D); assay: Protein-protein interaction inhibition between Kras and SOS1 (KrasG12D-SOS PPI) using AlphaScreen; format: biochemical; conditions: AlphaScreen; biotin-tagged human Kras loaded with GDP, His-tagged human SOS1; read-out: KRAS G12D-SOS PPI IC50;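 also: kras produced in E. coli, Ni-coupled donor beads and streptavidin acceptor beads, excitation 680 nm with emission detected at 520–620 nm via singlet oxygen transfer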
[2] = tested on: Human pancreatic cancer cell line AsPC-1 (G12D mutation Kras); assay: AsPC-1 cell growth inhibition (AsPC-1 CGI); format: cell-based; conditions: read-out: AsPC-1 cell growth inhibition, 50% growth inhibitory concentration (IC50 value); 96 hours, CellTiter-Glo, values classified in ranges
Description: Test compounds were serially dilated with dimethyl sulfoxide, and 200 nL was then dispensed to a U-bottom 96-well plate using Labcyte Echo. […] The cell suspension was dispensed to a. plate containing a test compound at 100 μL per well and incubated at 37° C. in a 5% carbon dioxide gas incubator. 96 hours later, 80 μL of CellTiter-Glo (Promega) was added to each well and fluorescence was measured.

Structure (SMILES) | IC50 [1] | IC50 [2]
CC[C@H](C)[C@@H]1NC(=O)[C@H](CC(C)C)N(C)C(=O)C[C@@H](C(=O)N2CCOCC2)N(C)C(=O)[C@H](C2CCCC2)N(C)C(=O)C2(CCCC2)NC(=O)[C@@H]2CCCN2C(=O)[C@H](CCc2ccc(C(F)(F)F)c(Cl)c2)NC(=O)CN(C)C(=O)[C@H](C2CCCC2)N(C)C(=O)[C@@H]2CCN2C(=O)[C@H](C)N(C)C1=O [Compound 302] ([NMeL]I[NMeA][Aze][NMeGly(cPent)][Sar][hPhe(3-Cl-4-CF3)]P[Ac5c][NMeGly(cPent)][NMeD]-Morpholide; lactam N-11) | 0.68 nM | ≤ 20 nM
CC(C)C[C@H]1C(=O)N[C@@H](COCC(F)(F)F)C(=O)N(C)[C@@H](C)C(=O)N2CC[C@H]2C(=O)N(C)[C@@H](CC2CCCCC2)C(=O)N(C)CC(=O)N[C@@H](CCc2ccc(C(F)(F)F)c(Cl)c2)C(=O)N2CCC[C@H]2C(=O)NC2(CCCC2)C(=O)N(C)[C@@H](C(C)C)C(=O)N(C)[C@H](C(=O)N2CCCCC2)CC(=O)N1C [Compound 304] ([NMeL]S(Trifluoroethyl)[NMeA][Aze][NMeCha][Sar][hPhe(3-Cl-4-CF3)]P[Ac5c][NMeV][NMeD]-Piperidide; lactam N-11) | 87 nM | > 500 nM
CC[C@H](C)[C@@H]1NC(=O)[C@H](C)N(C)C(=O)C[C@@H](C(=O)N2CCCCC2)N(C)C(=O)[C@H](C(C)C)N(C)C(=O)C2(CCCC2)NC(=O)[C@@H]2CCCN2C(=O)[C@H](CCc2ccc(C(F)(F)F)c(Cl)c2)NC(=O)[C@@H](C)N(C)C(=O)[C@H](CC2CCCCC2)N(C)C(=O)[C@@H]2CCCN2C(=O)CN(C)C1=O [Compound 307] ([NMeA]I[Sar]P[NMeCha][dNMeA][hPhe(3-Cl-4-CF3)]P[Ac5c][NMeV][NMeD]-Piperidide; lactam N-11) | 4.4 nM | > 500 nM
CC[C@H](C)[C@@H]1NC(=O)[C@H](CCC(C)C)N(C)C(=O)C[C@@H](C(=O)N(C)C)N(C)C(=O)[C@H]([C@@H](C)CC)N(C)C(=O)C2(CCCC2)NC(=O)[C@@H]2CCCN2C(=O)[C@H](CCc2ccc(C(F)(F)F)c(Cl)c2)NC(=O)CN(C)C(=O)[C@H](Cc2ccc(C)cc2)N(C)C(=O)[C@@H]2CCN2C(=O)[C@H](C)NC1=O [Compound 308] ([NMehLeu]IA[Aze][NMePhe(4-Me)][Sar][hPhe(3-Cl-4-CF3)]P[Ac5c][NMeI][NMeD]-NMe2; lactam N-11) | 0.93 nM | ≤ 20 nM
CC[C@H](C)[C@@H]1NC(=O)[C@H](CC(C)C)N(C)C(=O)C[C@@H](C(=O)N(C)C)N(C)C(=O)[C@H](C2CCCC2)N(C)C(=O)[C@H](C)NC(=O)[C@@H]2CCCN2C(=O)[C@H](CCc2ccc(C(F)(F)F)c(Cl)c2)NC(=O)CN(C)C(=O)[C@H](CC2CCCCC2)N(C)C(=O)[C@@H]2CCN2C(=O)[C@H](C)N(C)C1=O [Compound 314] ([NMeL]I[NMeA][Aze][NMeCha][Sar][hPhe(3-Cl-4-CF3)]PA[NMeGly(cPent)][NMeD]-NMe2; lactam N-11) | 2.6 nM | > 500 nM
CCCOC[C@H]1C(=O)N(C)CC(=O)N[C@@H](CCc2ccc(C(F)(F)F)c(F)c2)C(=O)N2CCC[C@H]2C(=O)NC2(CCCC2)C(=O)N(C)[C@@H]([C@@H](C)CC)C(=O)N(C)[C@H](C(=O)N(C)C)CC(=O)N(C)[C@@H](CC(C)C)C(=O)N[C@@H]([C@@H](C)CC)C(=O)N(C)[C@@H](C)C(=O)N2CC[C@H]2C(=O)N1C [Compound 316] ([NMeL]I[NMeA][Aze][NMeS](Propyl)[Sar][hPhe(3-F,4-CF3)]P[Ac5c][NMeI][NMeD]-NMe2; lactam N-11) | 3.3 nM | ≤ 20 nM
CC[C@H](C)[C@@H]1NC(=O)[C@H](C)N(C)C(=O)C[C@@H](C(=O)N(C)C)N(C)C(=O)[C@H](C(C)C)N(C)C(=O)C2(CCCC2)NC(=O)[C@H](Cc2ccccc2Cl)N(C)C(=O)[C@H](CCc2ccc(C(F)(F)F)c(Cl)c2)NC(=O)CN(C)C(=O)[C@H](CC2CCCCC2)N(C)C(=O)CN(C)C(=O)CN(C)C1=O [Compound 317] ([NMeA]I[Sar][Sar][NMeCha][Sar][hPhe(3-Cl-4-CF3)][NMePhe(2-Cl)][Ac5c][NMeV][NMeD]-NMe2; lactam N-11) | 30 nM | > 500 nM
CC[C@H](C)[C@@H]1NC(=O)[C@H](CC(C)C)N(C)C(=O)C[C@@H](C(=O)N2CCCCC2)N(C)C(=O)[C@H](C(C)C)N(C)C(=O)C2(CCCC2)NC(=O)[C@@H]2CCCN2C(=O)[C@H](CCc2ccc(C(F)(F)F)c(Cl)c2)NC(=O)CN(C)C(=O)[C@H](CC2CCCCC2)N(C)C(=O)[C@@H]2CCN2C(=O)[C@@H]2CCN2C1=O [Compound 318] ([NMeL]I[Aze][Aze][NMeCha][Sar][hPhe(3-Cl-4-CF3)]P[Ac5c][NMeV][NMeD]-Piperidide; lactam N-11) | 19 nM | > 500 nM
CC[C@H](C)[C@@H]1NC(=O)[C@H](CC(C)C)N(C)C(=O)C[C@@H](C)N(C)C(=O)[C@H](CC(C)C)NC(=O)C(C)(C)N(C)C(=O)[C@H]([C@@H](C)CC)NC(=O)[C@H](CCc2ccc(C(F)(F)F)c(F)c2)NC(=O)CN(C)C(=O)[C@H](Cc2ccc(Cl)cc2)N(C)C(=O)CN(C)C(=O)CN(C)C1=O [Compound 332] (cyclo(I[NMeAib]L[NMedβ3hAla][NMeL]I[Sar][Sar][NMePhe(4-Cl)][Sar][hPhe(3-F,4-CF3)])) | 210 nM | > 500 nM
CC[C@H](C)[C@@H]1NC(=O)[C@H](CC(C)C)N(C)C(=O)C[C@@H](C(=O)N(C)C)N(C)C(=O)[C@H](C2CCCC2)N(C)C(=O)C2(CCCC2)NC(=O)[C@@H]2CCCN2C(=O)[C@H](CCc2ccc(C(F)(F)F)c(F)c2)NC(=O)CN(C)C(=O)[C@H](CC2CCCCC2)N(C)C(=O)[C@@H]2CCN2C(=O)[C@H](C)N(C)C1=O [Compound 334] ([NMeL]I[NMeA][Aze][NMeCha][Sar][hPhe(3-F,4-CF3)]P[Ac5c][NMeGly(cPent)][NMeD]-NMe2; lactam N-11) | 0.5 nM | ≤ 20 nM
CCCCC[C@H]1C(=O)N[C@@H]([C@@H](C)CC)C(=O)N[C@@H](C)C(=O)N2CC[C@H]2C(=O)N(C)[C@@H](Cc2ccc(C)cc2)C(=O)N(C)CC(=O)N[C@@H](CCc2ccc(C(F)(F)F)c(Cl)c2)C(=O)N2CCC[C@H]2C(=O)NC2(CCCC2)C(=O)N(C)[C@@H]([C@@H](C)CC)C(=O)N(C)[C@H](C(=O)N(C)C)CC(=O)N1C [Compound 342] ([NMeAhp(2)]IA[Aze][NMePhe(4-Me)][Sar][hPhe(3-Cl-4-CF3)]P[Ac5c][NMeI][NMeD]-NMe2; lactam N-11) | 0.95 nM | ≤ 20 nM
CCCCC[C@H]1C(=O)N[C@@H]([C@@H](C)CC)C(=O)N(C)[C@@H](C)C(=O)N2CC[C@H]2C(=O)N(C)[C@@H](C2CCCC2)C(=O)N(C)CC(=O)N[C@@H](CCc2ccc(C(F)(F)F)c(Cl)c2)C(=O)N2CCC[C@H]2C(=O)NC2(CCCC2)C(=O)N(C)[C@@H](C2CCCC2)C(=O)N(C)[C@H](C(=O)N2CCOCC2)CC(=O)N1C [Compound 343] ([NMeAhp(2)]I[NMeA][Aze][NMeGly(cPent)][Sar][hPhe(3-Cl-4-CF3)]P[Ac5c][NMeGly(cPent)][NMeD]-Morpholide; lactam N-11) | 0.87 nM | ≤ 20 nM
CCO[C@@H]1C[C@H]2C(=O)NC3(CCCC3)C(=O)N(C)[C@@H](C3CCCC3)C(=O)N(C)[C@H](C)CC(=O)N(C)[C@@H](CC(C)C)C(=O)N[C@@H]([C@@H](C)CC)C(=O)N(C)[C@@H](C)C(=O)N3CC[C@H]3C(=O)N(C)[C@@H](Cc3ccc(C(F)(F)F)cc3)C(=O)N(C)CC(=O)N[C@@H](CCc3cc(F)c(C(F)(F)F)c(F)c3)C(=O)N2C1 [Compound 344] (cyclo([Ac5c][NMeGly(cPent)][NMedβ3hAla][NMeL]I[NMeA][Aze][NMePhe(4-CF3)][Sar][hPhe(3,5-F2-4-CF3)][Hyp](Et))) | 0.83 nM | ≤ 20 nM
CC[C@H](C)[C@@H]1NC(=O)[C@H](C)N(C)C(=O)C[C@@H](C(=O)N2CCCCC2)N(C)C(=O)[C@H](C(C)C)N(C)C(=O)C2(CCCC2)NC(=O)[C@H](Cc2ccc(C)cc2)N(C)C(=O)[C@H](CCc2ccc(C(F)(F)F)c(Cl)c2)NC(=O)CN(C)C(=O)[C@H](CC2CCCCC2)N(C)C(=O)CN(C)C(=O)CN(C)C1=O [Compound 346] ([NMeA]I[Sar][Sar][NMeCha][Sar][hPhe(3-Cl-4-CF3)][NMePhe(4-Me)][Ac5c][NMeV][NMeD]-Piperidide; lactam N-11) | 11 nM | > 500 nM
CC(C)C[C@H]1C(=O)N[C@@H](CC2CC2)C(=O)N(C)[C@@H](C)C(=O)N2CC[C@H]2C(=O)N(C)[C@@H](CC2CCCCC2)C(=O)N(C)CC(=O)N[C@@H](CCc2ccc(C(F)(F)F)c(Cl)c2)C(=O)N2CCC[C@H]2C(=O)NC2(CCCC2)C(=O)N(C)[C@@H](C(C)C)C(=O)N(C)[C@H](C(=O)N2CCCCC2)CC(=O)N1C [Compound 358] ([NMeL][Ala(cPr)][NMeA][Aze][NMeCha][Sar][hPhe(3-Cl-4-CF3)]P[Ac5c][NMeV][NMeD]-Piperidide; lactam N-11) | 33 nM | > 500 nM
CCO[C@@H]1C[C@H]2C(=O)NC3(CCCC3)C(=O)N(C)[C@@H]([C@@H](C)CC)C(=O)N(C)[C@H](C)CC(=O)N(C)[C@@H](CC(C)C)C(=O)N[C@@H]([C@@H](C)CC)C(=O)N(C)[C@@H](C)C(=O)N3CC[C@H]3C(=O)N(C)[C@@H](Cc3ccc(C(F)(F)F)cc3)C(=O)N(C)CC(=O)N[C@@H](CCc3cc(F)c(C(F)(F)F)c(F)c3)C(=O)N2C1 [Compound 362] (cyclo([Ac5c][NMeI][NMedβ3hAla][NMeL]I[NMeA][Aze][NMePhe(4-CF3)][Sar][hPhe(3,5-F2-4-CF3)][Hyp](Et))) | 0.66 nM | ≤ 20 nM
